Series [1] addresses Nicotinic Acetylcholine α3β4 (Homo sapiens, UniProt P30926+P32297). Nature of the series: LeadProfilingScreen radioligand binding.
Another series concerns the target Dopamine D4.4 (Homo sapiens, UniProt P21917). Nature of the series: LeadProfilingScreen radioligand binding.
The target in series [2] is Epidermal Growth Factor (EGF) (Homo sapiens, UniProt P00533). In words: LeadProfilingScreen radioligand binding.
A further series has as its target Dopamine D1 (Homo sapiens, UniProt P21728). In words: LeadProfilingScreen radioligand binding.
The next series concerns the target Potassium Channel [KATP] (Cricetus cricetus, UniProt Q09427). Nature of the series: LeadProfilingScreen radioligand binding. Set-up: species or system hamster. The method, then: Both lead compounds, VU6047606 and VU6032735, were subjected to radioligand binding assays in a Eurofins LeadProfilingScreen SafetyScreen Panel to detect potential adverse activity, relative selectivity, and off-target activity. Compounds were screened at 10 μM and percent inhibition was monitored across 68 potential off-target G protein-coupled receptors, ion channels, nuclear hormone receptors, and transporters. ,

The target of another series is CYP2D6 (Homo sapiens, UniProt P10635). Nature of the series: CYP450 inhibition. It is filed as in vitro ADME. The conditions noted are these: read-out: CYP450 Inhibition, 2D6.
Series [3] can be described thus: Distribution ratio female reproductive organs versus plasma after IV dosing. In kind it is in vivo. The note with it: C57Bl/6, mouse, female mice, 1 mg/kg IV; for Kp at 0.25 h: reproductive organs / plasma. How it is done: Samples were analyzed via electrospray ionization (ESI) LC-MS/MS on an AB Sciex 4500 (Foster City, CA) triple-quadrupole instrument that was coupled with an Agilent 1290 Infinity Binary Pump and multisampler (Santa Clara, CA) and concentrations (ng/mL or ng/g) were determined using a matrix-matched 10-point standard curve and then converted to nM concentrations. Quantitation of compounds was performed via AB Sciex Multiquant software using the raw analyte:IS peak area ratios. The typical detection range was 0.5 ng/mL to ≥5000 ng/mL utilizing a quadratic equation regression with 1/x² weighting. Correction for dilution of all tissue samples was performed postquantitation. The corrections for dilution in the extraction buffer employed correction factors specific to each tissue weight.
In-life phase–Compounds were formulated in PEG400:DMSO (4:1, v/v) at a concentration of 1 mg/mL and administered as a single 1 mg/kg dose (1 mL/kg) to female C57Bl/6 mice (n = 2–4; 30 g body weight) via intravenous (i.v.) injection. Blood samples were collected serially from a surgically implanted carotid artery catheter in each animal over multiple postadministration time points (0.25, 0.5, 1, 3, 6, and 24 h) into chilled, K2EDTA anticoagulant-fortified tubes and immediately placed on wet ice. The blood samples were stored at −80 °C until analysis by LC-MS/MS.
At the same time points, female reproductive organs were obtained by rapid dissection, rinsed with PBS, pooled by lots of 2 and immediately frozen in individual tissue collection boxes (dry ice). All tissues and blood samples were stored at −80 °C until analysis by LC-MS/MS.

A short description of series [4]: Multispecies hepatocyte MetID. In kind it is in vitro ADME, minipig. The conditions noted are these: 4 h incubation with hepatocytes, 10 μM.
The target in a further series is Adrenergic α1D (Homo sapiens, UniProt P25100). Nature of the series: LeadProfilingScreen radioligand binding.
The target of another series is Adenosine A1 (Homo sapiens, UniProt P30542). Nature of the series: LeadProfilingScreen radioligand binding.
Another series has as its target Adrenergic β1 (Homo sapiens, UniProt P08588). Nature of the series: LeadProfilingScreen radioligand binding.
The subject of series [5] is GABAA, Flunitrazepam, Central. Nature of the series: LeadProfilingScreen radioligand binding. Set-up: species or system rat.
The target in series [6] is Leukotriene, Cysteinyl CysLT1 (Homo sapiens, UniProt Q9Y271). Nature of the series: LeadProfilingScreen radioligand binding.
Series [7] deals with Calcium Channel L-Type, Dihydropyridine. In words: LeadProfilingScreen radioligand binding. Set-up: species or system rat.
The target of a further series is Cannabinoid CB1 (Homo sapiens, UniProt P21554). Nature of the series: LeadProfilingScreen radioligand binding.
In the next series the target is Bradykinin B1 (Homo sapiens, UniProt P46663). Nature of the series: LeadProfilingScreen radioligand binding.
A further series deals with Phorbol Ester. Nature of the series: LeadProfilingScreen radioligand binding. Set-up: species or system mouse.
Series [8] relates to Glutamate, NMDA, Phencyclidine. Nature of the series: LeadProfilingScreen radioligand binding. Set-up: species or system rat.
Series [9] is described as follows: Multispecies hepatocyte MetID. The conditions noted are these: 4 h incubation with hepatocytes, 10 μM. It is filed as in vitro ADME, dog. The method, then: Metabolites were identified after preincubating each compound at a 10 μM final concentration with 2.5 × 10^5 hepatocytes from human, dog, cynomolgus monkey, and rat in 200 μL of Optiincubate buffer (BioIVT, Westbury, NY). […] After centrifugation, 60 μL of the supernatant was transferred to 60 μL of water for LC-MS analysis. Samples were analyzed using a Thermo Scientific Vanquish UHPLC consisting of a VH-P10-A pump, a VH-A10-A sampler module, a VH-C10-A column compartment, and the VF-D11-A UV detector coupled to an Orbitrap Fusion Lumos instrument with UVPD. A binary solvent system consisting of (A) water with 0.1% formic acid and (B) acetonitrile with 0.1% formic acid was used with an Accucore Vanquish C18+, 2.1 mm × 100 mm, 1.5 μm, UHPLC column maintained at 40 °C. The data generated by data-dependent acquisition via normal acquisition and AcquireX were processed manually with Thermo Scientific FreeStyle and assisted by Compound Discoverer 3.3.1.111 to aid in the structural assignments.

The target of series [10] is Platelet Activating Factor (PAF) (Homo sapiens, UniProt P25105). In words: LeadProfilingScreen radioligand binding.
The next series has as its target Transporter, GABA (Rattus norvegicus, UniProt P23978). Nature of the series: LeadProfilingScreen radioligand binding.
[11] abbreviates: female reproductive organs (pooled), pooled organs, read-out: Reproductive Organs concentration.
Where [12] appears, read: plasma, read-out: Plasma concentration.

Each structure is given as a SMILES string. Values joined by “and” are separate entries in the source; they are usually repeats but may differ in a detail not shown here. Equal values may be shown once. Read-outs that look alike come from different tables or passages of the source.

Epidermal Growth Factor (EGF), sequence (P00533 25-1210): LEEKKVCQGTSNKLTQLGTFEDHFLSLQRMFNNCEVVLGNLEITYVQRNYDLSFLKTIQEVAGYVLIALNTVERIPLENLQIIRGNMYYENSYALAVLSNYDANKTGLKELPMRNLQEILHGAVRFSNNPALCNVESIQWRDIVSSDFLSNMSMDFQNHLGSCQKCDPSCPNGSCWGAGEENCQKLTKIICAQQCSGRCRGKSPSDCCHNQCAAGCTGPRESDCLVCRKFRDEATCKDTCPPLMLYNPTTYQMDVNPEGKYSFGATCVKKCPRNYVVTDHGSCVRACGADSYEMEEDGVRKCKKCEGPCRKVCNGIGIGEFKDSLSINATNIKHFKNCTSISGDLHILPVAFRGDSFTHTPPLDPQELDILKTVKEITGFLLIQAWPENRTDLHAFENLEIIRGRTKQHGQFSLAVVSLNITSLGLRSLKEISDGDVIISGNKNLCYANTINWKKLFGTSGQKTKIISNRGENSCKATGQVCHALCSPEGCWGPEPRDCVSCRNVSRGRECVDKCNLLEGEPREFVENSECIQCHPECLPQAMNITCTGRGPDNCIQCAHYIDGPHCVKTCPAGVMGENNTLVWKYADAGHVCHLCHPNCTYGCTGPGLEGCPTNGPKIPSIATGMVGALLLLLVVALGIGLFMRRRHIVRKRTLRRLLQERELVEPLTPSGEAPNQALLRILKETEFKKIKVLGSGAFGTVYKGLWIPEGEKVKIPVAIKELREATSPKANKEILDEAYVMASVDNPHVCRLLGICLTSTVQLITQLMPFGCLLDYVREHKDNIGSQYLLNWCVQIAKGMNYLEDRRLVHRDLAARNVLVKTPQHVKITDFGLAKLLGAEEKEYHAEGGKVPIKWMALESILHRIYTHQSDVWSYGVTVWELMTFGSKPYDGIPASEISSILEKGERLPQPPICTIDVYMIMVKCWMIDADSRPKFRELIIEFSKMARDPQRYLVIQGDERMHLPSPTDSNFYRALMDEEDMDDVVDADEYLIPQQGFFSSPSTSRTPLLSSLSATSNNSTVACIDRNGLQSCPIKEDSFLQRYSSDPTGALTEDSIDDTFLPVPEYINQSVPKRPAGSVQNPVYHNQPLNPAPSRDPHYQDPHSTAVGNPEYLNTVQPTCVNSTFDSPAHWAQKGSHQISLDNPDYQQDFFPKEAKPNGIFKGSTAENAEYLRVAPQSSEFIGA
Adenosine A1, sequence (P30542 whole entry): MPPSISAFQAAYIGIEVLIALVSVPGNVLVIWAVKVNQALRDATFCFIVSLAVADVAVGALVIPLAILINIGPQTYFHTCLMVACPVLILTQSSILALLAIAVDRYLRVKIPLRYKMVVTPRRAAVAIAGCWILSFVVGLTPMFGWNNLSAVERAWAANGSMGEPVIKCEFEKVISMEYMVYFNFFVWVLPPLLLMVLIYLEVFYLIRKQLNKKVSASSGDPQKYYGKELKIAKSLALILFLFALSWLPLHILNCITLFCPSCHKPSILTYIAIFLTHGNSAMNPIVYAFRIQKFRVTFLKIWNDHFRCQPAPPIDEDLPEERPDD
Platelet Activating Factor (PAF), sequence (P25105 whole entry): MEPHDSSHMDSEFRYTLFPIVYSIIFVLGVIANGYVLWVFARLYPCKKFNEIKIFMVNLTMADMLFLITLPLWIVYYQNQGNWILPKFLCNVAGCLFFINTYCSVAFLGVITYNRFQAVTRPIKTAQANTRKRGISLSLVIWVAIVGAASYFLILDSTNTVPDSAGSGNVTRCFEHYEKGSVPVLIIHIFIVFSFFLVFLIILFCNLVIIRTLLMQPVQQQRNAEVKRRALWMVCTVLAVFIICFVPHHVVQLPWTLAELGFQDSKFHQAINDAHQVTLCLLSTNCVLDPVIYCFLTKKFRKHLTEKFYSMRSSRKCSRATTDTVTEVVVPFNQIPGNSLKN
Dopamine D1, sequence (P21728 whole entry): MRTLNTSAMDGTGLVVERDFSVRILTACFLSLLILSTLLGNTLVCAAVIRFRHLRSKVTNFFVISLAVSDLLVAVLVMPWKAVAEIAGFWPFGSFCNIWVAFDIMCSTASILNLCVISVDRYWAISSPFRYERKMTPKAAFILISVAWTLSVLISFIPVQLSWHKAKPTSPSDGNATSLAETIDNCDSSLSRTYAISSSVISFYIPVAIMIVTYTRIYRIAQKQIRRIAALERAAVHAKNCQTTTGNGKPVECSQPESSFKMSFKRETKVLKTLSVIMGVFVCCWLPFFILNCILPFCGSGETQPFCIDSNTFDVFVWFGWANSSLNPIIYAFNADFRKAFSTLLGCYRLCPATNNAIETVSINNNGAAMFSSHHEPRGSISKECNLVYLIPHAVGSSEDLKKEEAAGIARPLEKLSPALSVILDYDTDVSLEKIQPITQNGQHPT
Dopamine D4.4, sequence (P21917 whole entry): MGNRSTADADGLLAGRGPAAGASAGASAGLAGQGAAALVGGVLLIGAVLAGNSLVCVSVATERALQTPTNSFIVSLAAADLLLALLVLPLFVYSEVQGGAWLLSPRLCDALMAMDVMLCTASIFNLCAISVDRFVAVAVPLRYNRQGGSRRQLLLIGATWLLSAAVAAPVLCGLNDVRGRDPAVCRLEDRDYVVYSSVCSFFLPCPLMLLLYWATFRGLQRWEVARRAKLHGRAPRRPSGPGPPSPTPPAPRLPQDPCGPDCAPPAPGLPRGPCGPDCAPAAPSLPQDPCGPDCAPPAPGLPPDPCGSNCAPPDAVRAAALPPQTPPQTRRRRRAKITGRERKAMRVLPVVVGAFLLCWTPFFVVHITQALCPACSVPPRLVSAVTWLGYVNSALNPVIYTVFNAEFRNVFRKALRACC
CYP2D6, sequence (P10635 whole entry, species assumed): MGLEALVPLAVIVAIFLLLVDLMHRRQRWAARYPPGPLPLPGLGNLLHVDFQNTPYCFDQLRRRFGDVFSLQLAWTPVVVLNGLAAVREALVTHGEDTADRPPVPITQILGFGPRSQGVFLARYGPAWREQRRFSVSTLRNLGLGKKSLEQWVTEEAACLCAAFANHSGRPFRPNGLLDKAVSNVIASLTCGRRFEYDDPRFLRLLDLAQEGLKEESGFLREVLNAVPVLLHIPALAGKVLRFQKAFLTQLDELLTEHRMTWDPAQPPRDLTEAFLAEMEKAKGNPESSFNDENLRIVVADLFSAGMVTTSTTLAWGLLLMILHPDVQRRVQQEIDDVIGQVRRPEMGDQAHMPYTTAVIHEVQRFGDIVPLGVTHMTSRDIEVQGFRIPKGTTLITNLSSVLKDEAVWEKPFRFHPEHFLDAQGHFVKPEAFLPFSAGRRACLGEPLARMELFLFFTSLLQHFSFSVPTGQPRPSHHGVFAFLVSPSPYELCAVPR
Nicotinic Acetylcholine α3β4, sequence (P32297 32-505): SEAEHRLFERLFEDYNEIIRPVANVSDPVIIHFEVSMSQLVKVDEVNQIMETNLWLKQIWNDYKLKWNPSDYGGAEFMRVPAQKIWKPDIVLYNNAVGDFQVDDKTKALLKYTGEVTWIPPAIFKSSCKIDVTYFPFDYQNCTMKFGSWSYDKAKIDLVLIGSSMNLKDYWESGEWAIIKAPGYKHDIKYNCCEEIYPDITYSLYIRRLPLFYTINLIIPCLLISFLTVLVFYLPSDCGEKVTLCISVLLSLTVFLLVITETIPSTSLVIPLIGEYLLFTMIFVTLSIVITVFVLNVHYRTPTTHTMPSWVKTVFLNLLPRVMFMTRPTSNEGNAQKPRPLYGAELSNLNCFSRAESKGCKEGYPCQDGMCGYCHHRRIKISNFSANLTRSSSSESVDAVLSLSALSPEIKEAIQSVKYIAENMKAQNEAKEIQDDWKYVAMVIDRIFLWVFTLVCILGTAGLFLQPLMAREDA
Nicotinic Acetylcholine α3β4, sequence (P30926 22-498): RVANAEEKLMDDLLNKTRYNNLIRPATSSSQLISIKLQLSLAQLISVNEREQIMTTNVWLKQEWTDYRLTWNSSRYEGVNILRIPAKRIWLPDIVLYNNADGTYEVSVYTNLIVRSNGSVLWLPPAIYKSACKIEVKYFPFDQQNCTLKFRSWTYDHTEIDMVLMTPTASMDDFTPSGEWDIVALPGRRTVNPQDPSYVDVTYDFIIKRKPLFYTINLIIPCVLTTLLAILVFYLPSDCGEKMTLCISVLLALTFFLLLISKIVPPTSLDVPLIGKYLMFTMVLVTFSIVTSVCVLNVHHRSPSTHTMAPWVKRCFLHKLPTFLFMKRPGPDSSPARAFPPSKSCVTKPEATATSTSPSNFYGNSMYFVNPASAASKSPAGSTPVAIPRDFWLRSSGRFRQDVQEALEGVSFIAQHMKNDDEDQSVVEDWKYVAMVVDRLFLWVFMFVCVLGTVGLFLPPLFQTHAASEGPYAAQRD
Adrenergic α1D, sequence (P25100 whole entry): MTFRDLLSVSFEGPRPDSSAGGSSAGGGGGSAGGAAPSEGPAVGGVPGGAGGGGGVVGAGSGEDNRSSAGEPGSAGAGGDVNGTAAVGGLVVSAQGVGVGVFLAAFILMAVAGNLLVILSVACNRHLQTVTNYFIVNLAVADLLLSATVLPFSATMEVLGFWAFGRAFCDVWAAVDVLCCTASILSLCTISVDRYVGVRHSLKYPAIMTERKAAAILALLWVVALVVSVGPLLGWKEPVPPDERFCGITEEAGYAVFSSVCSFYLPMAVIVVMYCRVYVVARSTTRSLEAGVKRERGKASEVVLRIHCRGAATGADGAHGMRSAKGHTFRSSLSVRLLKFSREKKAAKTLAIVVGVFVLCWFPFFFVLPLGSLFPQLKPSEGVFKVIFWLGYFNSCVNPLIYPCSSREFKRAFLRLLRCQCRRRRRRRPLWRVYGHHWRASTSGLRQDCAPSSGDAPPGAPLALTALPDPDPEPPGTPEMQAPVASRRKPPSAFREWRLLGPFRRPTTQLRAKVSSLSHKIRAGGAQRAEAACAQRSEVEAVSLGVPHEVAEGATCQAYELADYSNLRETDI

For orientation: inhibition means the relative decrease from the control value, in per cent. For orientation: Kp means the ratio of the level in a tissue or fluid to that in plasma or blood. As a reminder, the % inhibition is the relative decrease from the control value, in per cent. In the case of `O=C(c1ccc(OCc2ccc(OC(F)(F)F)cc2)cc1)N1CCN(c2ccc(C(F)(F)F)cn2)CC1` [VU6032735], the inhibition at 10 µM in [1] was -6%; on Dopamine D4.4 it was -5%; in [2], 5%; on Dopamine D1, 12%; at Potassium Channel [KATP] it was -7%; at Adrenergic α1D it was 2%. Besides, the inhibition at 10 µM is 12% at Adenosine A1; 8% at Adrenergic β1; -3% in series [6]; 32% on Cannabinoid CB1; 4% at Bradykinin B1; -2% in [10]. Moreover, on Transporter, GABA, the inhibition at 10 µM is -4%. In addition, on CYP2D6, the IC50 is over 30 µM. In addition, the concentration at 0.25 h in series [3] (setting [11]) turned out to be 1070 ng/mL; in series [3] (setting [12]), 85.3 ng/mL. In addition, in series [3], the concentration ratio (Kp) at 0.25 h was determined as 12.7. For the same molecule, the “% of Parent Related Material, Pig” value in series [4] was over 98%. Moreover, the “% inhibition at 10 μM” value in series [5] was determined as 5%; in [7], 76%; in the series with Phorbol Ester, 12%; in series [8], 8%. Also, the “% of Parent Related Material, Dog” value in series [9] is over 98%.

Take `Cc1cc(Cl)cc2sc(O[C@H]3CCN(C(=O)CCCS(=O)(=O)c4cccc(Br)c4)C[C@H]3F)nc12` [VU6047606]: the inhibition at 10 µM was -7% in [1]; -8% at Dopamine D4.4; 2% in series [2]; 25% on Dopamine D1; -5% on Potassium Channel [KATP]; 13% at Adrenergic α1D. For the same molecule, the inhibition at 10 µM is 5% on Adenosine A1; 11% on Adrenergic β1; 2% in series [6]; 27% on Cannabinoid CB1; -5% on Bradykinin B1; 8% in series [10]. For the same molecule, the inhibition at 10 µM at Transporter, GABA amounted to 4%. Further, at CYP2D6, the IC50 is over 30 µM. Also, the concentration at 0.25 h in [3] (setting [11]) was 56.6 ng/mL; in [3] (setting [12]), 121 ng/mL. For the same molecule, in [3], the Kp at 0.25 h is 0.47. For the same molecule, the “% of Parent Related Material, Pig” value in series [4] is 93.66% and > 82%. In addition, the “% inhibition at 10 μM” value is 11% in [5], 93% in series [7], 22% with Phorbol Ester and 6% in series [8]. Also, the “% of Parent Related Material, Dog” value in series [9] is 93.78% and > 82%.
